Values after ≈ are worked out from the molar mass of the structure shown.
How the values were obtained:
[1] = tested on: Fluoroquinolone Sensitive Strains; assay: In-vitro antimicrobial test (MIC, two-fold serial agar dilution, NCCLS), Table 17; type: cell-based; conditions: for MICs: hydrochloride
Procedure: (§1) The test method was in accordance with the standard NCCLS protocol (Methods for Dilution Antimicrobial Susceptibility Tests for Bacteria that grow Aerobicially, Approved Standards, M7-A5, Fifth Edition, January 2000).
(§2) The antibacterial activities (minimum inhibitory concentration: MIC, […]) were determined by using the two-fold serial agar dilution method recommended by NCCLS. The media used for preculture and main culture were Tryptic Soya broth (Difco) and Mueller Hinton medium (Difco), respectively. The Mueller Hinton agar was supplemented with 5% sheep blood for streptococci. Overnight cultures were diluted with buffered saline (pH 7.2) to the final cell density of 5×10^6-10^7 CFU/ml, and each bacterial suspension was applied with a replicator (Denley's multipoint inoculator, UK) onto a series of Mueller-Hinton agar plates containing antibacterial agents at various concentrations. Final inoculum was approximately 10^4 CFU/spot. The plates were incubated for 18 hrs at 37° C. The MIC was defined as the lowest concentration of an antibacterial agent that inhibits the development of visible microbial growth on agar.

J 744 (mouse macrophage) = assay: Cytotoxicity test (Alamar blue), J 744 cells, Table 23; type: cell-based; conditions: 3 hrs drug exposure, further 96 hrs incubation, hydrochloride
Procedure: Compounds were evaluated for their cytotoxic potential against two celllines viz. […] Cytotoxic drugs inhibit this reaction resulting into blue coloured well. Minimum drug concentration inhibiting Alamar blue color change i.e. resulting into blue coloured wells for a given drug is considered cytotoxic concentration.

[2] = tested on: V79 (Chinese Hamster Lung); assay: Cytotoxicity test (Alamar blue), V79 cells, Table 23; type: cell-based; conditions: 3 hrs drug exposure, further 96 hrs incubation, hydrochloride
Procedure: Compounds were evaluated for their cytotoxic potential against two […] viz. […] Cells were grown for 3-4days in a culture flask using D-MEM (Dulbecco's Modified Eagle. […] Freshly grown cells were distributed in microtiter plates at a cell density of 10^5-10^6 cells/well and allowed to […] form monolayer by incubating the microtiter plate at […] for 24 hrs. […] Following 3 hrs. of drug exposure, cell were washed with D-MEM and incubated further for 96 hrs. Cytotoxic effects of drugs were monitored through daily microscopic observation and by ascertaining the metabolic status through redox indicator Alamar blue. Healthy actively metabolising cells bring about colour change of Alamar blue from blue to pink within an overnight incubation. Cytotoxic drugs inhibit this reaction resulting into blue coloured well. Minimum drug concentration inhibiting Alamar blue color change i.e. resulting into blue coloured wells for a given drug is considered cytotoxic concentration.

[3] = tested on: Fluoroquinolone-Resistant Strains; assay: In-vitro antimicrobial test (MIC, two-fold serial agar dilution, NCCLS), Table 18; type: cell-based; conditions: hydrochloride
Procedure: as §1, §2

[4] = Escherichia coli, ATCC25922, E. coli ATCC 25922
[5] = Staphylococcus aureus, ATCC 25923 / MSSA, MSSA ATCC 25923
[6] = Streptococcus pneumoniae, ATCC49619, S. pneumoniae ATCC 49619

SMILES | melting point | further results
Cc1c(N2CCC(N(C)C)C(C)C2)c(F)cc2c(=O)c(C(=O)O)cn(C3CC3)c12 (stereo not drawn) [Compound 114, 1-Cyclopropyl-6-fluoro-1,4-dihydro-8-methyl-7-(4-dimethylamino-3-methyl-1-piperidinyl)-4-oxo-quinoline-3-carboxylic acid] | 221 °C | MIC [1, 4]: 0.05 µg/mL (≈ 0.125 µM); MIC [1, 5]: 0.05 µg/mL (≈ 0.125 µM); MIC [1, 6]: 0.05 µg/mL (≈ 0.125 µM)
CCOC(=O)NC1CCN(c2c(F)cc3c(=O)c(C(=O)O)cn(C4CC4)c3c2OC)CC1(C)C (stereo not drawn) [Compound 30, 1-Cyclopropyl-6-fluoro-1,4-dihydro-8-methoxy-7-(4-carbethoxyamino-3,3-dimethyl-1-piperidinyl)-4-oxo-quinoline-3-carboxylic acid] | 222 °C | MIC [1, 4]: 0.05 µg/mL (≈ 0.105 µM); MIC [1, 5]: 0.05 µg/mL (≈ 0.105 µM); MIC [1, 6]: 0.1 µg/mL (≈ 0.21 µM)
COc1c(N2CCC(N)C(C)C2)c(F)cc2c(=O)c(C(=O)O)cn(C3CC3)c12 (stereo not drawn) [Compound 1, 1-Cyclopropyl-6-fluoro-1,4-dihydro-8-methoxy-7-(4-amino-3-methyl-1-piperidinyl)-4-oxo-quinoline-3-carboxylic acid] | 238 to 240 °C | MIC [1, 4]: 0.05 µg/mL (≈ 0.128 µM); MIC [1, 5]: 0.05 µg/mL (≈ 0.128 µM); MIC [1, 6]: 0.2 µg/mL (≈ 0.514 µM)
Cc1c(N2CCC(N)C(C)(C)C2)c(F)cc2c(=O)c(C(=O)O)cn(C3CC3)c12.Cl (single isomer, unassigned; (+)) [Compound 106, (+)-1-Cyclopropyl-6-fluoro-1,4-dihydro-8-methyl-7-(4-amino-3,3-dimethyl-1-piperidinyl)-4-oxo-quinoline-3-carboxylic acid hydrochloride] |  | MICs ([1]; E. faecalis ATCC 29212): 0.2 µg/mL; MIC [1, 4]: 0.05 µg/mL; MICs ([1]; P. aeruginosa 27853): 6.25 µg/mL; MICs ([1]; S. pneumoniae ATCC 49619): 0.1 µg/mL; MIC ([1]; S. sanguis ATCC 10556 (Viridans Streptococci group)): 0.1 µg/mL; MIC [1, 5]: 0.025 µg/mL; Cytotoxic concentration, J 744 Macrophage (J 744 (mouse macrophage)): >1000 µg/mL; Cytotoxic concentration, V 79 CHL [2]: >1000 µg/mL; MICs ([3]; Cipro^R S. mitis 938): 6.25 µg/mL; MICs ([3]; Cipro^R S. sanguis 941): 6.25 µg/mL; MICs ([3]; FQ^R S. pneumoniae 718): 1.56 µg/mL; MICs ([3]; MRSA 032): 1.56 µg/mL
CCNC1C(C)CN(c2c(F)c(N)c3c(=O)c(C(=O)O)cn(C4CC4)c3c2OC)CC1C (stereo not drawn) [Example 58, 5-amino-1-cyclopropyl-6-fluoro-1,4-dihydro-8-methoxy-7-(4-ethylamino-3,5-dimethyl-1-piperidinyl)-4-oxo-quinoline-3-carboxylic acid] | 255 to 258 °C | 
CNC1C(C)CN(c2c(F)c(N)c3c(=O)c(C(=O)O)cn(C4CC4)c3c2OC)CC1C (stereo not drawn) [Compound 83, 5-Amino-1-cyclopropyl-6-fluoro-1,4-dihydro-8-methoxy-7-(4-methylamino-3,5-dimethyl-1-piperidinyl)-4-oxo-quinoline-3-carboxylic acid] | 224 to 226 °C | 
CCc1c(N2CCC(N)CC2)c(F)cc2c(=O)c(C(=O)O)cn(C3CC3)c12 [Compound 117, 1-Cyclopropyl-6-fluoro-8-ethyl-7-(4-amino-1-piperidinyl)-1,4-dihydro-4-oxo-quinoline-3-carboxylic acid] | 248 to 249 °C | 
CNC1C(C)CN(c2c(F)cc3c(=O)c(C(=O)O)cn(C4CC4)c3c2OC)CC1C (stereo not drawn) [Compound 45, 1-Cyclopropyl-6-fluoro-1,4-dihydro-8-methoxy-7-(4-methylamino-3,5-dimethyl-1-piperidinyl)-4-oxo-quinoline-3-carboxylic acid] | 268 to 272 °C | 
CCC1CN(c2c(F)cc3c(=O)c(C(=O)O)cn(C4CC4)c3c2OC)CCC1O (stereo not drawn) [Compound 136, 1-Cyclopropyl-6-fluoro-1,4-dihydro-8-methoxy-7-(4-hydroxy-3-ethyl-1-piperidinyl)-4-oxo-quinoline-3-carboxylic acid] | 188 to 190 °C | 
COc1c(N2CCC(NC3CC3)C(C)C2)c(F)cc2c(=O)c(C(=O)O)cn(C3CC3)c12 (stereo not drawn) [Compound 11, 1-Cyclopropyl-6-fluoro-1,4-dihydro-8-methoxy-7-(4-cyclopropylamino-3-methyl-1-piperidinyl)-4-oxo-quinoline-3-carboxylic acid] | 182 to 184 °C | 
COc1c(N2CC(C)C(N)C(C)(C)C2)c(F)c(N)c2c(=O)c(C(=O)O)cn(C3CC3)c12 (stereo not drawn) [Compound 87, 5-Amino-1-cyclopropyl-6-fluoro-1,4-dihydro-8-methoxy-7-(4-amino-3,3,5-trimethyl-1-piperidinyl)-4-oxo-quinoline-3-carboxylic acid] | 248 to 252 °C | 
Cc1c(N2CCC(N)C(C)(C)C2)c(F)cc2c(=O)c(C(=O)O)cn(C3CC3)c12.Cl (racemic) [Example 97] | 242 to 244 °C | 
COc1c(N2CC(C)C(NC3CC3)C(C)C2)c(F)c(N)c2c(=O)c(C(=O)O)cn(C3CC3)c12 (stereo not drawn) [Example 60, 5-Amino-1-cyclopropyl-6-fluoro-1,4-dihydro-8-methoxy-7-(4-cyclopropylamino-3,5-dimethyl-1-piperidinyl)-4-oxo-quinoline-3-carboxylic acid] | 248 °C | 
COc1c(N2CC(C)C(N)C(C)C2)c(F)cc2c(=O)c(C(=O)O)cn(C3CC3)c12 (stereo not drawn) [Example 34, 1-cyclopropyl-6-fluoro-1,4-dihydro-8-methoxy-7-(4-amino-3,5-dimethyl-1-piperidinyl)-4-oxo-quinoline-3-carboxylic acid] | 200 to 204 °C | 
CCC1(C)CN(c2c(F)c(N)c3c(=O)c(C(=O)O)cn(C4CC4)c3c2OC)CCC1NC (stereo not drawn) [Compound 78, 5-Amino-1-cyclopropyl-6-fluoro-1,4-dihydro-8-methoxy-7-(4-methylamino-3-ethyl-3-methyl-1-piperidinyl)-4-oxo-quinoline-3-carboxylic acid] | 164 to 166 °C | 
COc1c(N2CCC(N(C)C)C(C)C2)c(F)c(N)c2c(=O)c(C(=O)O)cn(C3CC3)c12 (stereo not drawn) [Compound 63, 5-Amino-1-cyclopropyl-6-fluoro-1,4-dihydro-8-methoxy-7-(4-dimethylamino-3-methyl-1-piperidinyl)-4-oxo-quinoline-3-carboxylic acid] | 210 °C | 
CCNC1C(C)CN(c2c(F)c(N)c3c(=O)c(C(=O)O)cn(C4CC4)c3c2OC)CC1C (stereo not drawn) [Example 57, 5-amino-1-cyclopropyl-6-fluoro-1,4-dihydro-8-methoxy-7-(4-ethylamino-3,5-dimethyl-1-piperidinyl)-4-oxo-quinoline-3-carboxylic acid] | 202 to 204 °C | 
CCC1(C)CN(c2c(F)cc3c(=O)c(C(=O)O)cn(C4CC4)c3c2OC)CCC1NC1CC1 (stereo not drawn) [Compound 41, 1-Cyclopropyl-6-fluoro-1,4-dihydro-8-methoxy-7-(4-cyclopropylamino-3-ethyl-3-methyl-1-piperidinyl)-4-oxo-quinoline-3-carboxylic acid] | 210 to 212 °C | 
CCC1(C)CN(c2c(F)c(N)c3c(=O)c(C(=O)O)cn(C4CC4)c3c2OC)CCC1N(C)C (stereo not drawn) [Compound 80, 5-Amino-1-cyclopropyl-6-fluoro-1,4-dihydro-8-methoxy-7-(4-dimethylamino-3-methyl-3-ethyl-1-piperidinyl)-4-oxo-quinoline-3-carboxylic acid] | 194 to 196 °C | 
CNC1CCN(c2c(F)c(N)c3c(=O)c(C(=O)O)cn(C4CC4)c3c2OC)CC1C (stereo not drawn) [Compound 60, 5-Amino-1-cyclopropyl-6-fluoro-1,4-dihydro-8-methoxy-7-(4-methylamino-3-methyl-1-piperidinyl)-4-oxo-quinoline-3-carboxylic acid] | 228 to 230 °C (dec.) | 
CCC1(C)CN(c2c(F)cc3c(=O)c(C(=O)O)cn(C4CC4)c3c2OC)CCC1N(C)C (stereo not drawn) [Compound 42, 1-Cyclopropyl-6-fluoro-1,4-dihydro-8-methoxy-7-(4-dimethylamino-3-ethyl-3-methyl-1-piperidinyl)-4-oxo-quinoline-3-carboxylic acid] | 210 to 212 °C | 
COc1c(N2CCC(N(C)C)C(C)C2)c(F)cc2c(=O)c(C(=O)O)cn(C3CC3)c12 (stereo not drawn) [Compound 13, 1-Cyclopropyl-6-fluoro-1,4-dihydro-8-methoxy-7-(4-dimethylamino-3-methyl-1-piperidinyl)-4-oxo-quinoline-3-carboxylic acid] | 180 to 182 °C | 

— patent US6878713B2, “Generation triple-targeting, chiral, broad-spectrum antimicrobial 7-substituted piperidino-quinolone carboxylic acid derivatives, their preparation, compositions and use as medicaments” (Wockhardt Limited, priority 2001, dated 2005)
